From patent US8748452B2, “Indolizine derivative and use thereof for medical purposes” (Kissei Pharmaceutical Co., Ltd., priority 2009, dated 2014)

Columns and labels:
[1] = target: T1, Xanthine oxidase (from bovine milk, Sigma) (Bos taurus, UniProt P80457); assay: Xanthine oxidase inhibitory activity; type: biochemical; settings: xanthine oxidase from bovine milk 0.02 units/mL, xanthine 200 μM, 10 minutes at room temperature, absorbance at 290 nm
T1 construct: Xanthine oxidase (from bovine milk, Sigma); purchased Sigma; host or cells: bovine milk
T1 sequence (P80457 whole entry): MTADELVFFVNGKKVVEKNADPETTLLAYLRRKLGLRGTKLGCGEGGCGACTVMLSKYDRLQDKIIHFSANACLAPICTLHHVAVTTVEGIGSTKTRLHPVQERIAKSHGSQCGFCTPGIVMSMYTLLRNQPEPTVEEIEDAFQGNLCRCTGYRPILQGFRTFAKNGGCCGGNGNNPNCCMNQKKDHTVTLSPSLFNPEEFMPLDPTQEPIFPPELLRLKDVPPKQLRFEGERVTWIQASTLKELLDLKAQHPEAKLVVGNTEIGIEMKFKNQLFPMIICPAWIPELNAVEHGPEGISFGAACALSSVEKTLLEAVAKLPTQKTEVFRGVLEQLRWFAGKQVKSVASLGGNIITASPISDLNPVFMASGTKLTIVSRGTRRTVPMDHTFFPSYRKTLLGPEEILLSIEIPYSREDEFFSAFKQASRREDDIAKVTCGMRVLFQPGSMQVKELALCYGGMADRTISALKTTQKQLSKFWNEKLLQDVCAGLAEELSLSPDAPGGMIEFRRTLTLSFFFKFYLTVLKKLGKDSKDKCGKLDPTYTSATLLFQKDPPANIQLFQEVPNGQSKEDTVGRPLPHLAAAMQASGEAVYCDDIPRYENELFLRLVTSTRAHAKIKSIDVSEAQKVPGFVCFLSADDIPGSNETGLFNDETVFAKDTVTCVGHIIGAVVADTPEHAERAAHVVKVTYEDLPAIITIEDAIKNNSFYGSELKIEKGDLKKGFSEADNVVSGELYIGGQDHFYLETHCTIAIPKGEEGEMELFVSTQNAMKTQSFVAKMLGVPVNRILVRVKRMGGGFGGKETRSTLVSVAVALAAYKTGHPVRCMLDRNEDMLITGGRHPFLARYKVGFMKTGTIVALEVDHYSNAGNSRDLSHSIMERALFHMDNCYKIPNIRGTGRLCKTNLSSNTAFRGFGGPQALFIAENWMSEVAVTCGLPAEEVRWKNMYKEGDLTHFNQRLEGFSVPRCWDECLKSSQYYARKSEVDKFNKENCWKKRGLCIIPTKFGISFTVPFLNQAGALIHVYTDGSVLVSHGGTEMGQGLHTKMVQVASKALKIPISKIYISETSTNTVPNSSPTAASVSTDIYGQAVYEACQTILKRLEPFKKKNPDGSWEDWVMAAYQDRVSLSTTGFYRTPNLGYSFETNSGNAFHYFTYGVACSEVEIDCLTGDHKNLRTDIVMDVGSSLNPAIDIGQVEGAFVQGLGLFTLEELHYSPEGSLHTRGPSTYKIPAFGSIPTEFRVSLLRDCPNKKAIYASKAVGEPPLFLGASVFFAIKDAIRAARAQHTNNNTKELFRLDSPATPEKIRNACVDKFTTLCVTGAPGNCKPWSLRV
Experimental: (1) Preparation of test compounds
Test compounds were dissolved in DMSO (Wako pure chemical) at 40 mM concentration and then diluted to intended concentrations with phosphate-buffered saline (PBS).
(2) Method for measurement
Xanthine oxidase (from bovine milk, Sigma) was prepared with phosphate-buffered saline (PBS) at 0.02 units/mL, and then the solution was added to 96 well plates at 50 μL/well. In addition, test compounds diluted with PBS were added at 50 μL/well. Xanthine (Wako pure chemical) at 200 μM prepared with PBS was added at 100 μL/well, and the mixture was reacted for 10 minutes at room temperature. Absorbance at 290 nm was measured using a microplate reader SpectraMax Plus 384 (Molecular device). The absorbance under a condition without xanthine is 0%, and control without test compounds is 100%. Fifty % inhibitory concentration (IC50) of test compounds was calculated (Table 17). Ex. No. in the table indicates Example number.

human URAT1 = target: T2, human URAT1 (Homo sapiens, UniProt Q96S37); assay: Inhibitory activity of uric acid transport with human URAT1 expressing cells; type: cell-based; settings: COS-7; concentration of 10 μM; 14C-labeled uric acid 20 μM, 5 minutes uptake, COS7 cells transiently expressing human URAT1
T2 construct: expressed in transfected cells; host or cells: COS7 cells (RIKEN CELL BANK RCB0539), transient, pcDNA3.1
T2 sequence (Q96S37 1-553): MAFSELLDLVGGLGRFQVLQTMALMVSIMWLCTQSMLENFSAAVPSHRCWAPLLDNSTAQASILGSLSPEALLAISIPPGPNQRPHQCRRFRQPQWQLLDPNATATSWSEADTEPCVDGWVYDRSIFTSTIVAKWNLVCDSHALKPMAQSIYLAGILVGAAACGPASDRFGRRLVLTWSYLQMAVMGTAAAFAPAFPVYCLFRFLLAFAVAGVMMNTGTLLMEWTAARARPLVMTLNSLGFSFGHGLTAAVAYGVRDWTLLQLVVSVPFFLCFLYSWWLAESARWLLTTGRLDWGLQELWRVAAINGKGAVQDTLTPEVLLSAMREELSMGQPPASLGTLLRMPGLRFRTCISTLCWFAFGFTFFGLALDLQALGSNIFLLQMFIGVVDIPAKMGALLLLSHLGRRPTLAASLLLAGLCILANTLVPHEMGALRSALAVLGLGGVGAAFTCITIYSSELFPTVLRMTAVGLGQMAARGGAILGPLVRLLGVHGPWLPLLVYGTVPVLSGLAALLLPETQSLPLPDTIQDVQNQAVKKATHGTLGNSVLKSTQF
Experimental: (1) Preparation of transiently human URAT1 expressing cells
Full length human URAT1 cDNA (NCBI Accession No. NM_144585) was subcloned into expression vector, pcDNA3.1 (Invitrogen). Human URAT1 expression vector was transfected into COS7 cells (RIKEN CELL BANK RCB0539) using Lipofectamine 2000 (Invitrogen). COS7 cells were seeded in collagen-coated 24 well plates (Beckton Dickinson) at 3×10^5 cells / well and cultured in D-MEM culture medium (Invitrogen) containing 10% fetal bovine serum (Sanko Junyaku) for 2 hours at 37° C. under the condition of 5% CO2. For 1 well, 2 μL of Lipofectamine 2000 was diluted in 50 μL of OPTI-MEM (Invitrogen) and allowed to stand at room temperature for 7 minutes (hereinafter referred to as Lipo2000-OPTI). For 1 well, 0.8 μg of human URAT1 expression vector was diluted in 50 μL of OPTI-MEM (Invitrogen) and combined gently with Lipo2000-OPTI. After standing at room temperature for 25 minutes, the mixture was added to COS7 cells at 100 μL/well. Furthermore, COS7 cells were cultured for 2 days at 37° C. under the condition of 5% CO2 and used for measuring inhibitory activity on the uptake.
(2) Preparation of test compounds
Test compounds were dissolved in DMSO (Wako pure chemical) at 10 mM concentration and then diluted to 2 times higher concentration than intended with pre-treatment buffer (125 mM sodium gluconate, 4.8 mM potassium gluconate, 1.2 mM potassium dihydrogen phosphate, 1.2 mM magnesium sulfate, 1.3 mM calcium gluconate, 5.6 mM glucose, 25 mM Hepes, pH 7.4). Pre-treatment buffer without test compounds was used for control. In addition, an equal volume of pre-treatment buffer containing ^14C-labeled uric acid (American Radiolabeled Chemicals, Inc.) was added to test compounds and control, and finally assay buffer including 20 μM uric acid was prepared.
(3) Method for measurement
All tests were performed on hot-plate at 37° C. Pre-treatment buffer and assay buffer were incubated at 37° C. and then used for assays. Medium was removed from plates, and 700 μL of pre-treatment buffer was added, and the cells were pre-incubated for 10 minutes. After repeating the same step, pre-treatment buffer was removed, and assay buffer was added at 400 μL/well. The uptake reaction was carried out for 5 minutes. After terminating the reaction, assay buffer was rapidly removed, and the cells were washed twice with addition of ice-cold pre-treatment buffer at 1.2 mL/well. Then, the cells were lysed by addition of 0.2 mol/L sodium hydroxide at 300 μL/well. The lysed solutions were transferred into Picoplate (PerkinElmer), and Microscinti 40 (PerkinElmer) was added at 600 μL/well. After mixing, the radioactivity was counted in a liquid scintillation counter (PerkinElmer). The radioactivity in COS7 cells not transfected with URAT1 expression vector was also counted under the same condition as control. As a result, it was shown that compounds of Examples 5, 8, 17, 18, 22, 40 and 55 have inhibitory activity of 50% or higher in a concentration of 10 μM.

male CD (SD) IGS rats = assay: Serum hypouricemic effect; type: in vivo; settings: Rattus norvegicus; 1 mg/kg oral gavage, overnight fasted male rats, serum at 2 hours after administration; read-out: percent decrease in uric acid
Experimental: Test compounds at 1 mg/kg suspended in 0.5% methylcellulose solution were administered by oral gavage administration to overnight fasted male CD (SD) IGS rats (5-week-old, Charls River Japan). At 2 hours after administration, blood was collected under ether anesthesia from abdominal aorta, and serum was separated according to general method. Serum uric acid values were determined by use of uric acid measurement kit (Uric acid C-Test Wako: Wako pure chemical), and percent decrease in uric acid was calculated according to the formula described below. As a result, it was shown that compounds of Examples 2, 7, 10, 22, 23, 25, 37, 49, 50 and 58 have over 60% percent decrease in uric acid.
Percent decrease in uric acid (%)=(Serum uric acid values in control animals−Serum uric acid values in animals administered test compounds)×100/Serum uric acid values in control animals

IC50 [1] [nM]	inhibition at 10 µM (human URAT1) [%]	SMILES	inhibition in vivo at 1 mg/kg (male CD (SD) IGS rats) [%]
6	≥ 50	N#Cc1cc(-c2ccc(C(=O)O)c(O)c2)n2cc(F)cc(F)c12 [Example 55]	–
14	≥ 50	N#Cc1cc(-c2ccc(C(=O)O)cc2)n2cc(F)cc(F)c12 [Example 40]	–

More lines, now with the values behind:

SMILES	IC50 [1] [nM]	inhibition at 10 µM (human URAT1) [%]	inhibition in vivo at 1 mg/kg (male CD (SD) IGS rats) [%]
Cc1cc2c(C#N)cc(-c3ccc(C(=O)O)cc3)n2cc1F [Example 8]	6	≥ 50	–
Cc1ccn2c(-c3ccc(C(=O)O)c(O)c3)cc(C#N)c2c1 [Example 18]	3	≥ 50	–
Cc1ccc2c(C#N)cc(-c3ccc(C(=O)O)cc3)n2c1 [Example 5]	10	≥ 50	–
Cc1cc2c(C#N)cc(-c3ccc(C(=O)O)c(O)c3)n2cc1F [Example 22]	3	≥ 50	> 60
